Tested on: mice
Assay: Neuropharmacological assay (SmartCube), behavioral signature of compound-treated mice
Type: in vivo
Conditions: i.p. 15 min before behavioral test, most efficacious dose(s) of 3 doses
How it was run: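 Read-out is an automated video-based behavioral signature, scored as per-class probabilities (e.g., anxiolytic, antidepressant) against reference compounds. Dosing was i.p. at three doses, 15 min pre-test, in NMP, polyethylene glycol and propylene glycol. Values shown are from the most efficacious dose(s).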

Structure (SMILES)	AD: ADHD (probability that behavioral signature matches class)	AG: analgesic (probability that behavioral signature matches class)	AX: anxiolytic (probability that behavioral signature matches class)	CE: cognitive enhancer (probability that behavioral signature matches class)	DP: anti-depressant (probability that behavioral signature matches class)	HA: hallucinogen (probability that behavioral signature matches class)	MS: mood stabilizer (probability that behavioral signature matches class)	PS: anti-psychotic (probability that behavioral signature matches class)	SD: sedative hypnotic (probability that behavioral signature matches class)	UN: uncharacterized CNS activity (probability that behavioral signature matches class)
Fc1ccc2c(c1)[C@H]([C@@H]1CCN1)OCC2 [Compound I-86, (S)-2-((R)-7-fluoroisochroman-1-yl)azetidine]	+ (LOQ ≤ + <5%)	+++ (25% ≤ +++ <50%)	+++ (25% ≤ +++ <50%)	++ (5% ≤ ++ <25%)	++ (5% ≤ ++ <25%)	+ (LOQ ≤ + <5%)	+ (LOQ ≤ + <5%)	+++ (25% ≤ +++ <50%)	++ (5% ≤ ++ <25%)	++ (5% ≤ ++ <25%)
CC1(C)Cc2ccccc2[C@H]([C@H]2CCCN2)O1 [Compound I-68, (R)-2-((R)-3,3-dimethylisochroman-1-yl)pyrrolidine]	+ (LOQ ≤ + <5%)	+ (LOQ ≤ + <5%)	+ (LOQ ≤ + <5%)	+ (LOQ ≤ + <5%)	+ (LOQ ≤ + <5%)	+ (LOQ ≤ + <5%)	+ (LOQ ≤ + <5%)	+ (LOQ ≤ + <5%)	+ (LOQ ≤ + <5%)	+ (LOQ ≤ + <5%)
c1cc2c(c3c1CCO[C@H]3[C@@H]1CCN1)OCO2 [Compound I-144, (S)-2-((R)-7,9-dihydro-6H-[1,3]dioxolo[4,5-h]isochromen-9-yl)azetidine]	++ (5% ≤ ++ <25%)	++ (5% ≤ ++ <25%)	++ (5% ≤ ++ <25%)	++ (5% ≤ ++ <25%)	+++ (25% ≤ +++ <50%)	+ (LOQ ≤ + <5%)	++ (5% ≤ ++ <25%)	+++ (25% ≤ +++ <50%)	+ (LOQ ≤ + <5%)	+++ (25% ≤ +++ <50%)
Cc1ccc2c(c1)[C@@H]([C@@H]1CCCN1)OCC2 [Compound I-26, (S)-2-((S)-7-methylisochroman-1-yl)pyrrolidine]	+ (LOQ ≤ + <5%)	+ (LOQ ≤ + <5%)	++ (5% ≤ ++ <25%)	+ (LOQ ≤ + <5%)	+ (LOQ ≤ + <5%)	+ (LOQ ≤ + <5%)	+ (LOQ ≤ + <5%)	+ (LOQ ≤ + <5%)	+ (LOQ ≤ + <5%)	+ (LOQ ≤ + <5%)
c1cc2c(c3c1CCO[C@@H]3[C@@H]1CCN1)OCO2 [Compound I-143, (S)-2-((S)-7,9-dihydro-6H-[1,3]dioxolo[4,5-h]isochromen-9-yl)azetidine]	+ (LOQ ≤ + <5%)	++ (5% ≤ ++ <25%)	++ (5% ≤ ++ <25%)	+ (LOQ ≤ + <5%)	++ (5% ≤ ++ <25%)	+ (LOQ ≤ + <5%)	+ (LOQ ≤ + <5%)	++ (5% ≤ ++ <25%)	+ (LOQ ≤ + <5%)	+++ (25% ≤ +++ <50%)
COc1cccc2c1[C@@H]([C@@H]1CCCN1)OCC2 [Compound I-48, (S)-2-((S)-8-methoxyisochroman-1-yl)pyrrolidine]	+ (LOQ ≤ + <5%)	+++ (25% ≤ +++ <50%)	++ (5% ≤ ++ <25%)	++ (5% ≤ ++ <25%)	++ (5% ≤ ++ <25%)	+ (LOQ ≤ + <5%)	+ (LOQ ≤ + <5%)	++ (5% ≤ ++ <25%)	+ (LOQ ≤ + <5%)	+ (LOQ ≤ + <5%)
Fc1cccc2c1CCO[C@H]2[C@@H]1CCCN1 [Compound I-13, (S)-2-((R)-5-fluoroisochroman-1-yl)pyrrolidine]	+ (LOQ ≤ + <5%)	++ (5% ≤ ++ <25%)	++ (5% ≤ ++ <25%)	++ (5% ≤ ++ <25%)	+++ (25% ≤ +++ <50%)	+ (LOQ ≤ + <5%)	++ (5% ≤ ++ <25%)	++++ (50% ≤ ++++)	+ (LOQ ≤ + <5%)	++ (5% ≤ ++ <25%)
Fc1ccc2c(c1)CCO[C@@H]2[C@@H]1COCCN1 [Compound I-77, (S)-3-((S)-6-fluoroisochroman-1-yl)morpholine]	+ (LOQ ≤ + <5%)	+ (LOQ ≤ + <5%)	++ (5% ≤ ++ <25%)	+ (LOQ ≤ + <5%)	+ (LOQ ≤ + <5%)	+ (LOQ ≤ + <5%)	+ (LOQ ≤ + <5%)	+ (LOQ ≤ + <5%)	+ (LOQ ≤ + <5%)	+ (LOQ ≤ + <5%)
Fc1ccc2c(c1)[C@@H]([C@H]1CCCN1)OCCC2 [Compound I-108, (R)-2-((S)-8-fluoro-1,3,4,5-tetrahydrobenzo[c]oxepin-1-yl)pyrrolidine]	+ (LOQ ≤ + <5%)	++ (5% ≤ ++ <25%)	++ (5% ≤ ++ <25%)	++ (5% ≤ ++ <25%)	++ (5% ≤ ++ <25%)	+ (LOQ ≤ + <5%)	+ (LOQ ≤ + <5%)	+++ (25% ≤ +++ <50%)	++ (5% ≤ ++ <25%)	++ (5% ≤ ++ <25%)
COc1cccc2c1[C@H]([C@H]1CCCN1)OCC2 [Compound I-49, (R)-2-((R)-8-methoxyisochroman-1-yl)pyrrolidine]	+ (LOQ ≤ + <5%)	++ (5% ≤ ++ <25%)	++ (5% ≤ ++ <25%)	++ (5% ≤ ++ <25%)	++ (5% ≤ ++ <25%)	+ (LOQ ≤ + <5%)	++ (5% ≤ ++ <25%)	++ (5% ≤ ++ <25%)	++ (5% ≤ ++ <25%)	++ (5% ≤ ++ <25%)
c1ccc2c(c1)CCO[C@@H]2[C@H]1CCCN1 [Compound I-20, (R)-2-((S)-isochroman-1-yl)pyrrolidine]	+ (LOQ ≤ + <5%)	++ (5% ≤ ++ <25%)	++ (5% ≤ ++ <25%)	++ (5% ≤ ++ <25%)	++ (5% ≤ ++ <25%)	+ (LOQ ≤ + <5%)	++ (5% ≤ ++ <25%)	++++ (50% ≤ ++++)	++ (5% ≤ ++ <25%)	+++ (25% ≤ +++ <50%)

Same assay, conditions: i.p. 15 min before behavioral test, most efficacious dose(s) of 3 doses

Structure (SMILES)	XG: anxiogenic (probability that behavioral signature matches class)
Fc1ccc2c(c1)[C@H]([C@@H]1CCN1)OCC2 [Compound I-86, (S)-2-((R)-7-fluoroisochroman-1-yl)azetidine]	+ (LOQ ≤ + <5%)
CC1(C)Cc2ccccc2[C@H]([C@H]2CCCN2)O1 [Compound I-68, (R)-2-((R)-3,3-dimethylisochroman-1-yl)pyrrolidine]	+ (LOQ ≤ + <5%)
c1cc2c(c3c1CCO[C@H]3[C@@H]1CCN1)OCO2 [Compound I-144, (S)-2-((R)-7,9-dihydro-6H-[1,3]dioxolo[4,5-h]isochromen-9-yl)azetidine]	+ (LOQ ≤ + <5%)
Cc1ccc2c(c1)[C@@H]([C@@H]1CCCN1)OCC2 [Compound I-26, (S)-2-((S)-7-methylisochroman-1-yl)pyrrolidine]	+ (LOQ ≤ + <5%)
c1cc2c(c3c1CCO[C@@H]3[C@@H]1CCN1)OCO2 [Compound I-143, (S)-2-((S)-7,9-dihydro-6H-[1,3]dioxolo[4,5-h]isochromen-9-yl)azetidine]	+ (LOQ ≤ + <5%)
COc1cccc2c1[C@@H]([C@@H]1CCCN1)OCC2 [Compound I-48, (S)-2-((S)-8-methoxyisochroman-1-yl)pyrrolidine]	+ (LOQ ≤ + <5%)
Fc1cccc2c1CCO[C@H]2[C@@H]1CCCN1 [Compound I-13, (S)-2-((R)-5-fluoroisochroman-1-yl)pyrrolidine]	+ (LOQ ≤ + <5%)
Fc1ccc2c(c1)CCO[C@@H]2[C@@H]1COCCN1 [Compound I-77, (S)-3-((S)-6-fluoroisochroman-1-yl)morpholine]	+ (LOQ ≤ + <5%)
Fc1ccc2c(c1)[C@@H]([C@H]1CCCN1)OCCC2 [Compound I-108, (R)-2-((S)-8-fluoro-1,3,4,5-tetrahydrobenzo[c]oxepin-1-yl)pyrrolidine]	+ (LOQ ≤ + <5%)
COc1cccc2c1[C@H]([C@H]1CCCN1)OCC2 [Compound I-49, (R)-2-((R)-8-methoxyisochroman-1-yl)pyrrolidine]	+ (LOQ ≤ + <5%)
c1ccc2c(c1)CCO[C@@H]2[C@H]1CCCN1 [Compound I-20, (R)-2-((S)-isochroman-1-yl)pyrrolidine]	+ (LOQ ≤ + <5%)

Source: patent US10336732B2, “1-heterocyclyl isochromanyl compounds and analogs for treating CNS disorders” (Sunovion Pharmaceuticals Inc., priority 2015, dated 2019)
